The text below walks through data of patent US20240182460A1, “ALLOSTERIC CHROMENONE INHIBITORS OF PHOSPHOINOSITIDE 3-KINASE (PI3K) FOR THE TREATMENT OF DISEASE” (PETRA PHARMA CORPORATION, priority 2022, published 2024).

Some results are limits rather than exact numbers.

What is called microsomal CLint is the capacity of the preparation to metabolise the compound, expressed as a volume cleared per time. A low value points to greater metabolic stability.

The nature of this data set: Metabolic stability and intrinsic clearance in human liver microsomes (MICS). The format is in vitro ADME. The note with it: human, microsomes, pH 7.4. As for the experimental part:
Metabolic Stability and Intrinsic Clearance in Liver Microsomes (MICS)
One objective of this assay is to measure in vitro metabolic stability of a test compound in liver microsomes of one or more different species. The concentration of a control compound in the reaction system is evaluated by LC/MS/MS for calculating intrinsic clearance of a test compound and estimating the stability of the control compound and test compound in liver microsomes of one or more different species.
Microsomes (MICS). Human Liver Microsomes (HLM), Monkey Liver Microsomes (MKLM), Dog Liver Microsomes (DLM), Rat Liver Microsomes (RLM), and Mouse Liver Microsomes (MLM) are obtained at a concentration of 20 mg/mL protein from commercial sources and stored in a −80° C. freezer. Prior to use, liver microsomes are removed from the freezer and allowed to thaw in a 37° C. water bath and then stored on wet ice.
Stock Solutions. Test Compound (TC) Stock Solutions are prepared in DMSO at a concentration of 10 mM and stored for later use. Positive Control (PC) Stock Solutions of verapamil·HCL (FW: 491.1 g/mol) in DMSO are prepared at a concentration of 10 mM (4.91 mg/mL), and stored at the condition same as the stock solutions of test compounds.
Phosphate Buffer. Phosphate Buffer (100 mM, pH 7.4) is prepared by combining a Solution A and a Solution B as follows.
To prepare Solution A, 7.098 g of disodium hydrogen phosphate was combined with 500 mL of pure water and sonicated to dissolve. To prepare the Solution B, 3.400 g of potassium dihydrogen phosphate was combined with 250 mL of pure water and sonicated to dissolve. Solution A was placed on a stirrer and Solution B was slowly added into Solution A until the pH reached 7.4.
NADPH Solution. A 10 mM NADPH Solution is prepared by dissolving NADPH (MW: 833.4 g/mol) at 8.334 mg/mL in phosphate buffer (100 mM, pH 7.4).
Microsome Master Solution. A Microsome Master Solution is prepared by adding 6.25 μL microsomes (20 mg/mL) to 216.25 μL Phosphate Buffer (100 mM). The final concentration is Phosphate Buffer (100 mM); microsomes (0.5 mg/mL).
Dilution of Stock Solutions. The TC Stock Solutions (10 mM in DMSO) and the PC Stock Solutions (10 mM in DMSO) are diluted by adding 3 μL of the TC Stock Solution or the PC Stock Solution to 297 μL of 50% acetonitrile/50% water.
Incubation. Two separated experiments were performed as follows. a) With Cofactors (NADPH): 25 μL of 10 mM NADPH was added to the incubations. The final concentrations of
microsomes and NADPH were 0.5 mg/mL and 1 mM, respectively. b) Without Cofactors (NADPH): 25 μL of 100 mM Phosphate buffer was added to the incubations. The final concentration of microsomes was 0.5 mg/mL. The mixture was pre-warmed at 37° C. for 10 minutes.
The reaction was started with the addition of 2.5 μL of 100 μM PC solution or TC solutions.
Verapamil was used as PC in this study. The final concentration of test compound or control compound was 1 μM. The incubation solution was incubated in water batch at 37° C.
Reaction Termination. Aliquots of 30 μL were taken from the reaction solution at 0.5, 5, 15, 30 and 60 minutes and added to plates. The reaction was stopped by the addition of 5 volumes of cold acetonitrile and a solution containing 100 nM alprazolam, 200 nM caffeine and 100 nM tolbutamide.
Sampling. The plates containing the terminated reactions were centrifuged at 4000 rpm for 30 minutes. Supernatant of each compound (40 μL) was transferred into a 96-well analysis plate.
Four compound samples are pooled together into one cassette and diluted by adding 160 μL of pure water. All incubations are performed in duplicate.
Analysis and Data Processing. Quantitative LC-MS analysis is performed, and peak areas are determined from extracted ion chromatograms. Percent parent remaining was calculated from peak area of TC or PC. The slope value, k, is determined by linear regression of the natural logarithm of percent parent remaining vs. incubation time curve. […]
(Liver microsomes are a subcellular fraction often used to study metabolism.)
For `Cc1cc([C@@H](C)Oc2ccc(Cl)nc2C(N)=O)c2oc(-c3cc4cn(C)nc4cc3F)c(C)c(=O)c2c1` [Example 42C, 6-Chloro-3-[(1R)-1-[2-(6-fluoro-2-methyl-indazol-5-yl)-3,6-dimethyl-4-oxo-chromen-8-yl]ethoxy]pyridine-2-carboxamide], the microsomal CLint at 1 μM is under 50 µL/min/mg.
For `COc1cc(-c2oc3c([C@@H](C)Oc4ccc(Cl)nc4C(N)=O)cc(C)cc3c(=O)c2C)cc2cn(C)nc12` [Example 44C, 6-Chloro-3-[(1R)-1-[2-(7-methoxy-2-methyl-indazol-5-yl)-3,6-dimethyl-4-oxo-chromen-8-yl]ethoxy]pyridine-2-carboxamide], the intrinsic metabolic clearance (microsomal CLint) at 1 μM was under 50 µL/min/mg.
`Cc1cc([C@@H](C)Oc2ccc(Cl)nc2-c2noc(=O)[nH]2)c2oc(-c3cnc4c(c3)OCCO4)c(C)c(=O)c2c1` [Example 47A, 3-[6-Chloro-3-[(1R)-1-[2-(2,3-dihydro-[1,4]dioxino[2,3-b]pyridin-7-yl)-3,6-dimethyl-4-oxo-chromen-8-yl]ethoxy]-2-pyridyl]-4H-1,2,4-oxadiazol-5-one] showed a microsomal CLint at 1 μM of under 50 µL/min/mg.
For `Cc1cc([C@@H](C)Oc2ccc(Cl)nc2C(N)=O)c2oc(-c3ccc4c(c3)C(C)(C)OC(=O)N4)c(C)c(=O)c2c1` [Example 47C, 6-Chloro-3-[(1R)-1-[2-(4,4-dimethyl-2-oxo-1H-3,1-benzoxazin-6-yl)-3,6-dimethyl-4-oxo-chromen-8-yl]ethoxy]pyridine-2-carboxamide], the microsomal CLint at 1 μM was under 50 µL/min/mg.
For the compound `Cc1cc([C@@H](C)Oc2ccc(Cl)nc2C(N)=O)c2oc(-c3cc(C#N)c4nn(C)cc4c3)c(C)c(=O)c2c1` [Example 52C, 6-Chloro-3-[(1R)-1-[2-(7-cyano-2-methyl-indazol-5-yl)-3,6-dimethyl-4-oxo-chromen-8-yl]ethoxy]pyridine-2-carboxamide], the microsomal CLint at 1 μM is under 50 µL/min/mg.
The compound `Cc1cc([C@@H](C)Oc2ccc(Cl)nc2-c2noc(=O)[nH]2)c2oc(C3CC3)c(C)c(=O)c2c1` [Example 64A, 3-[6-Chloro-3-[(1R)-1-(2-cyclopropyl-3,6-dimethyl-4-oxo-chromen-8-yl)ethoxy]-2-pyridyl]-4H-1,2,4-oxadiazol-5-lone] gave a microsomal CLint at 1 μM of under 50 µL/min/mg.
The compound `Cc1cc([C@@H](C)Oc2ccc(Cl)nc2C(N)=O)c2oc(-c3cncnc3)c(C)c(=O)c2c1` [Example 67A, 6-Chloro-3-[(1R)-1-(3,6-dimethyl-4-oxo-2-pyrimidin-5-yl-chromen-8-yl)ethoxy]pyridine-2-carboxamide] returned a microsomal CLint at 1 μM of under 50 µL/min/mg.
Next, `Cc1cc([C@@H](C)Oc2ccc(F)nc2S(N)(=O)=O)c2oc(-c3cnc4ccoc4c3)c(C)c(=O)c2c1` [Example 73C, 6-Fluoro-3-[(1R)-1-(2-furo[3,2-b]pyridin-6-yl-3,6-dimethyl-4-oxo-chromen-8-yl)ethoxy]pyridine-2-sulfonamide]: under 50 µL/min/mg.
Next, `Cc1cc([C@@H](C)Oc2ccc(Cl)nc2C(N)=O)c2oc(-c3cnccn3)c(C)c(=O)c2c1` [Example 78C, 6-Chloro-3-[(1R)-1-(3,6-dimethyl-4-oxo-2-pyrazin-2-yl-chromen-8-yl)ethoxy]pyridine-2-carboxamide]: under 50 µL/min/mg.
Next, `Cc1cc([C@@H](C)Oc2ccc(Cl)nc2-c2noc(=O)[nH]2)c2oc(-c3cnn4c3CCC4)c(C)c(=O)c2c1` [Example 102A, 3-[6-Chloro-3-[(1R)-1-[2-(5,6-dihydro-4H-pyrrolo[2,1-e]pyrazol-3-yl)-3,6-dimethyl-4-oxo-chromen-8-yl]ethoxy]-2-pyridyl]-4H-1,2,4-oxadiazol-5-one]: under 50 µL/min/mg.
As for `Cc1cc([C@@H](C)Oc2ccccc2S(N)(=O)=O)c2oc(-c3cnn(C)c3)c(C)c(=O)c2c1` [Example 103C, 2-[(1R)-1-[3,6-Dimethyl-2-(1-methylpyrazol-4-yl)-4-oxo-chromen-8-yl]ethoxy]benzenesulfonamide], the microsomal CLint at 1 μM was under 50 µL/min/mg.
Compound `Cc1cc([C@@H](C)Oc2ccc(Cl)nc2C(N)=O)c2oc(-c3ccc4[nH]c(=O)ccc4c3)c(C)c(=O)c2c1` [Example 105A, 6-Chloro-3-[(1R)-1-[3,6-dimethyl-4-oxo-2-(2-oxo-1H-quinolin-6-yl)chromen-8-yl]ethoxy]pyridine-2-carboxamide] gave a microsomal CLint at 1 μM of under 50 µL/min/mg.
For `Cc1cc([C@@H](C)Oc2ccc(C#N)cc2C(N)=O)c2oc(-c3ccc4nn(C)cc4c3)c(C)c(=O)c2c1` [Example 108C, 5-Cyano-2-[(1R)-1-[3,6-dimethyl-2-(2-methylindazol-5-yl)-4-oxo-chromen-8-yl]ethoxy]benzamide], the intrinsic clearance (microsomal CLint) at 1 μM was under 50 µL/min/mg.
In the case of `Cc1cc([C@@H](C)Oc2ccc(Cl)nc2S(N)(=O)=O)c2oc(-c3cnn(CC4(O)CC4)c3)c(C)c(=O)c2c1` [Example 128C, 6-Chloro-3-[(1R)-1-[2-[1-[(1-hydroxycyclopropyl)methyl]pyrazol-4-yl]-3,6-dimethyl-4-oxo-chromen-8-yl]ethoxy]pyridine-2-sulfonamide], the microsomal CLint at 1 μM was under 50 µL/min/mg.
Turning to `Cc1cc([C@@H](C)Oc2ccc(Cl)nc2C(N)=O)c2oc(-c3cnc4oc(C)nc4c3)c(C)c(=O)c2c1` [Example 130A, 6-Chloro-3-[(1R)-1-[3,6-dimethyl-2-(2-methyloxazolo[5,4-b]pyridin-6-yl)-4-oxo-chromen-8-yl]ethoxy]pyridine-2-carboxamide], the microsomal CLint at 1 μM is under 50 µL/min/mg.
Next, `CONC(=O)c1nc(Cl)ccc1O[C@H](C)c1cc(C)cc2c(=O)c(C)c(-c3ccc4nn(CCO)cc4c3)oc12` [Example 135C, 6-Chloro-3-[(1R)-1-[2-[2-(2-hydroxyethyl)indazol-5-yl]-3,6-dimethyl-4-oxo-chromen-8-yl]ethoxy]-N-methoxy-pyridine-2-carboxamide]: under 50 µL/min/mg; `Cc1cc([C@@H](C)Oc2ccc(Cl)nc2C(N)=O)c2oc(-c3cnc4nn(C)cc4c3)c(C)c(=O)c2c1` [Example 137A, 6-Chloro-3-[(1R)-1-[3,6-dimethyl-2-(2-methylpyrazolo[3,4-b]pyridin-5-yl)-4-oxo-chromen-8-yl]ethoxy]pyridine-2-carboxamide]: under 50 µL/min/mg.
On to `Cc1cc([C@@H](C)Oc2ccc(Cl)nc2S(C)(=N)=O)c2oc(-c3cnn(C)c3)c(C)c(=O)c2c1` (stereo partly drawn) [Example 147A, 8-[(1R)-1-[[6-Chloro-2-(methylsulfonimidoyl)-3-pyridyl]oxy]ethyl]-3,6-dimethyl-2-(1-methylpyrazol-4-yl)chromen-4-one], for which the intrinsic metabolic clearance (microsomal CLint) at 1 μM was under 50 µL/min/mg.
